From patent US9434725B2, “5-azaindazole compounds and methods of use” (priority 2012, dated 2016)
Where two headings read alike, the source gives them in different places.

What was measured:
[1] = target: PIM1 (Homo sapiens (Human), UniProt P11309); assay: biochemical; assay type: biochemical; conditions: 10 μM ATP, 90 min, room temperature; read-out: PIM1 LC3K (KI)
Summary of the method: (§1)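 Pim-specific fluorescent peptide phosphorylated in 10 mM HEPES pH 7.2, 10 mM MgCl2, 0.01% Tween 20, 2 mM DTT for 90 min at room temperature, then stopped with EDTA. Product and substrate separated by microfluidic mobility shift; Ki derived from substrate conversion.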

[2] = target: PIM2 (Homo sapiens (Human), UniProt Q9P1W9); assay: Pim kinase binding activity, Caliper LC3000 microfluidic peptide phosphorylation assay, PIM2; assay type: biochemical; conditions: 10 μM ATP, 90 min, room temperature; read-out: PIM2 LC3K (KI)
PIM2, sequence (Q9P1W9 whole entry): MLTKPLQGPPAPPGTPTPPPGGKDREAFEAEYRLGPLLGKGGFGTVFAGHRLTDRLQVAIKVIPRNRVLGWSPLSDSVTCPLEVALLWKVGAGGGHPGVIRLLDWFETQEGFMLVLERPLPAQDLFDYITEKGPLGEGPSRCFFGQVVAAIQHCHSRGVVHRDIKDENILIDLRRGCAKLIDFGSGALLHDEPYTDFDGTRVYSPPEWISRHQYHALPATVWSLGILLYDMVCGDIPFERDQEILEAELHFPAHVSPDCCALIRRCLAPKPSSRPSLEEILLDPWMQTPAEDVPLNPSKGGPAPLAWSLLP
Summary of the method: as §1

[3] = target: PIM3 (Homo sapiens (Human), UniProt Q86V86); assay: Pim kinase binding activity, Caliper LC3000 microfluidic peptide phosphorylation assay, PIM3; assay type: biochemical; conditions: 10 μM ATP, 90 min, room temperature; read-out: PIM3 LC3K (KI)
Summary of the method: as §1

[4] = test system: BaF3 PIM1 cells; assay: In vitro cell proliferation potency assay (Cell Titer Glo), BaF3 PIM1 cells; assay type: cell-based, murine; conditions: read-out: Prolif BaF3_PIM 1 (IC50)
Description: BaF3 parental line was obtained from the DSMZ repository. BaF3 lines transfected with PIM1 or PIM2 were generated. Mouse IL-3 was purchased from R&D Systems. G418 was purchased from Clontech. Media for BaF3 parental line contained RPMI, 10% FBS, 2 mM L-Glutamine, 2 ng/mL mIL-3. Media for BaF3 PIM1 & 2 lines contained RPMI, 10% FBS, 2 mM L-Glutamine, […]. Media for MM1.S (multiple myeloma cells) line contained RPMI, 10% FBS, 2 mM L-Glutamine.
BaF3, a murine interleukin-3 dependent pro-B cell line, parental cells, BaF3 PIM1 cells, BaF3 PIM2 cells, and MM1.S (multiple myeloma) cells were seeded at 2 k/well, 5 k/well, 5 k/well, and 10 k/well respectively, in a 384-well plate, at 45 μL/well. Test compound was added at 5 μL/well. BaF3 cells (parental and transfected) were incubated overnight, while MM1.S cells were incubated for 72 hours at 37° C., 5% CO2. CELL TITER GLO® Reagent (Promega) was added at 50 μL/well, the plates were incubated for 30 minutes, and their luminescence read on an HT Analyst. IC50/EC50 values for the test compound were calculated.

[5] = Mus musculus, BaF3, BaF3 cells transfected with PIM1, incubated overnight

PIM1, sequence (P11309 whole entry): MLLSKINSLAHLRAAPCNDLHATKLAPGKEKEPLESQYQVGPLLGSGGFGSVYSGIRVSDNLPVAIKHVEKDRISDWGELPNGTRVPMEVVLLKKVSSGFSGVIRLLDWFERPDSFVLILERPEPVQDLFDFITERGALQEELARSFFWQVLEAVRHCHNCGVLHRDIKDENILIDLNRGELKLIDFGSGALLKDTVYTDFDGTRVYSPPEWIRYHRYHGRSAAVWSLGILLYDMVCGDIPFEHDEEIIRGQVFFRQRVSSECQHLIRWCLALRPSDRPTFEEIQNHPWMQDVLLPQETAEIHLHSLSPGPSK

Structure (SMILES)	Ki [1]	Ki [2]	Ki [3]	IC50 ([4]; BaF3 cells transfected with PIM1, incubated overnight)	IC50 [4, 5]
CCc1cncc(-c2cc3c(cn2)cnn3-c2cccc(N3CCNCC3)n2)c1 [Compound 104, 6-(5-ethylpyridin-3-yl)-1-(6-(piperazin-1-yl)pyridin-2-yl)-1H-pyrazolo[4,3-c]pyridine]	0.119 nM		0.077 nM		1500 nM
c1cc(N2CCCNCC2)nc(-n2ncc3cnc(-c4cncc(C5CC5)c4)cc32)c1 [Compound 112]	0.038 nM	3.87 nM	0.093 nM		490 nM
CCc1cncc(-c2cc3c(cn2)cnn3-c2ccc(Cl)c(N3CCC[C@H](N)C3)n2)c1 [Compound 117, (S)-1-(3-chloro-6-(6-(5-ethylpyridin-3-yl)-1H-pyrazolo[4,3-c]pyridin-1-yl)pyridin-2-yl)piperidin-3-amine]	0.141 nM	1.03 nM	0.098 nM		2900 nM
COc1cncc(-c2cc3c(cn2)cnn3-c2cccc(N3CCNCC3)n2)n1 [Compound 130, 6-(6-methoxypyrazin-2-yl)-1-(6-piperazin-1-yl-2-pyridyl)pyrazolo[4,3-c]pyridine]	0.113 nM	1.87 nM	0.068 nM		1500 nM
Cc1cncc(-c2cc3c(cn2)cnn3-c2cccc(N3CCC[C@H](N)C3)n2)n1 [Compound 137, (3S)-1-[6-[6-(6-methylpyrazin-2-yl)pyrazolo[4,3-c]pyridin-1-yl]-2-pyridyl]piperidin-3-amine]	0.159 nM	0.499 nM	0.038 nM		2100 nM
OCCn1cc(-c2cc3c(cn2)cnn3-c2cccc(N3CCCNCC3)n2)cn1 [Compound 152, 2-(4-(1-(6-(1,4-Diazepan-1-yl)pyridin-2-yl)-1H-pyrazolo[4,3-c]pyridin-6-yl)-1H-pyrazol-1-yl)ethanol]	0.215 nM	5.38 nM	0.134 nM		1500 nM
c1cc(N2CCNCC2)nc(-n2ncc3cnc(-c4cncc(C5CC5)n4)cc32)c1 [Compound 165, 6-(6-cyclopropylpyrazin-2-yl)-1-(6-piperazin-1-yl-2-pyridyl)pyrazolo[4,3-c]pyridine]	0.063 nM	1.14 nM	0.174 nM		139 nM
Cc1cncc(-c2cc3c(cn2)cnn3-c2cccc(N3CCNC(C)C3)n2)n1 (stereo not shown) [Compound 169, 1-[6-(3-methylpiperazin-1-yl)-2-pyridyl]-6-(6-methylpyrazin-2-yl)pyrazolo[4,3-c]pyridine]	0.228 nM	1.79 nM	0.164 nM		457 nM
CCc1cncc(-c2cc3c(cn2)cnn3-c2cccc(N3CCNCC(O)C3)n2)n1 (stereo not shown) [Compound 172, 1-[6-[6-(6-ethylpyrazin-2-yl)pyrazolo[4,3-c]pyridin-1-yl]-2-pyridyl]-1 4-diazepan-6-ol]	0.034 nM	1.47 nM	0.048 nM		111 nM
Cc1cncc(-c2cc3c(cn2)cnn3-c2cccc(C3(O)CCCNC3)n2)n1 (stereo not shown) [Compound 288, 3-(6-(6-(6-methylpyrazin-2-yl)-1H-pyrazolo[4,3-c]pyridin-1-yl)pyridin-2-yl)piperidin-3-ol]	0.918 nM	5.56 nM	0.564 nM		
Cn1ncc(-c2cc3c(cn2)cnn3-c2ccccc2F)c1Cl [Compound 309, 6-(5-chloro-1-methyl-1H-pyrazol-4-yl)-1-(2-fluorophenyl)-1H-pyrazolo[4,3-c]pyridine]	487 nM	2200 nM	944 nM		
Cn1ncc(-c2cc3c(cn2)cnn3-c2ccccc2F)c1C1=CCNCC1 [Compound 314, 1-(2-fluorophenyl)-6-(1-methyl-5-(1,2,3,6-tetrahydropyridin-4-yl)-1H-pyrazol-4-yl)-1H-pyrazolo[4,3-c]pyridine]	130 nM	1100 nM	166 nM		

More lines, in order of falling Ki [1], values ahead:

Ki [1]	Ki [2]	Ki [3]	IC50 ([4]; BaF3 cells transfected with PIM1, incubated overnight)	IC50 [4, 5]	Structure (SMILES)
0.867 nM	4.56 nM	0.155 nM		3000 nM	CCn1cc(-c2cc3c(cn2)cnn3-c2cccc(N3CCC[C@H](N)C3)n2)cn1 [Compound 133, (3S)-1-[6-[6-(1-ethylpyrazol-4-yl)pyrazolo[4,3-c]pyridin-1-yl]-2-pyridyl]piperidin-3-amine]
0.71 nM	3.48 nM	0.14 nM		804 nM	Cc1cc(-c2cc3c(cn2)cnn3-c2cccc(N3CCC[C@H](N)C3)n2)sn1 [Compound 124, (3S)-1-[6-[6-(3-methylisothiazol-5-yl)pyrazolo[4,3-c]pyridin-1-yl]-2-pyridyl]piperidin-3-amine]
0.698 nM	17.5 nM	0.37 nM			O=c1cncc(-c2cc3c(cn2)cnn3-c2cccc(N3CCNCC3)n2)[nH]1 [Compound 287, 6-[1-(6-piperazin-1-yl-2-pyridyl)pyrazolo[4,3-c]pyridin-6-yl]-1H-pyrazin-2-one]
0.644 nM	3.58 nM	0.481 nM			Cc1cncc(-c2cc3c(cn2)cnn3-c2cccc(N3CCC(O)C(O)C3)n2)n1 (stereo not shown) [Compound 312, 1-(6-(6-(6-methylpyrazin-2-yl)-1H-pyrazolo[4,3-c]pyridin-1-yl)pyridin-2-yl)piperidine-3,4-diol]
0.504 nM	4.5 nM	0.37 nM		1700 nM	N[C@@H]1CCCN(c2cccc(-n3ncc4cnc(-c5cncs5)cc43)n2)C1 [Compound 110, (3R)-1-[6-(6-thiazol-5-ylpyrazolo[4,3-c]pyridin-1-yl)-2-pyridyl]piperidin-3-amine]
0.476 nM	4.03 nM	0.285 nM		1500 nM	c1cc(N2CCNCC2)nc(-n2ncc3cnc(-c4cncs4)cc32)c1 [Compound 109, 5-[1-(6-piperazin-1-yl-2-pyridyl)pyrazolo[4,3-c]pyridin-6-yl]thiazole]
0.386 nM	6.68 nM	1.35 nM		549 nM	FC(F)(F)Cn1cc(-c2cc3c(cn2)cnn3-c2cncc(N3CCCNCC3)n2)cn1 [Compound 178, 1-(6-(1,4-Diazepan-1-yl)pyrazin-2-yl)-6-(1-(2,2,2-trifluoroethyl)-1H-pyrazol-4-yl)-1H-pyrazolo[4,3-c]pyridine]
0.362 nM	10.5 nM	0.636 nM		2500 nM	CC(C)(C)n1cc(-c2cc3c(cn2)cnn3-c2cccc(N3CCCNCC3)n2)cn1 [Compound 145, 1-(6-(1,4-Diazepan-1-yl)pyridin-2-yl)-6-(1-tert-butyl-1H-pyrazol-4-yl)-1H-pyrazolo[4,3-c]pyridine]
0.046 nM	0.596 nM	0.035 nM	1200 nM		Cc1cncc(-c2cc3c(cn2)cnn3-c2cccc(N3CCNC(C)C3)n2)n1 (single isomer, unassigned) [Compound 193, 1-[6-(3-methylpiperazin-1-yl)-2-pyridyl]-6-(6-methylpyrazin-2-yl)pyrazolo[4,3-c]pyridine]
0.014 nM	0.077 nM	0.019 nM		214 nM	Cc1cncc(-c2cc3c(cn2)cnn3-c2ccc(C3CC3)c(N3CCC[C@H](N)C3)n2)n1 [Compound 181, (S)-1-(3-cyclopropyl-6-(6-(6-methylpyrazin-2-yl)-1H-pyrazolo[4,3-c]pyridin-1-yl)pyridin-2-yl)piperidin-3-amine]
